Patent publication US20230088719A1, “USE OF BMP INHIBITORS IN THE TREATMENT OF MOLAR PREGNANCY” (BOGAZICI UNIVERSITESI, priority 2020, published 2023)
Entries after “also recorded” stand apart in the source; their conditions may differ.

System: complete mole iPS cells
Assay: Trophoblast differentiation of complete mole iPS cells under AP conditions with BMP receptor inhibitor LDN193189
Format: cell-based, human
Description: FIG. 9—Preventing trophoblast differentiation in complete mole iPS cells by inhibition of the BMP signaling pathway. Cells are exposed to vehicle (DMSO) or BMP receptor inhibitor LDN193189 (100 nM) under AP conditions. (A) Changes in colony morphology by LDN193189 treatment. Pictures were obtained with 4× magnification. (B) Heat map showing the expression of trophoblast markers during differentiation of healthy and complete mole iPS cells (n=2 biological replicas) (C-D) Violin plot representation of pluripotency and trophoblast markers (n=2, ****p<0.001, Wilcoxon rank total test) (E) RT-qPCR for trophoblast and stem cell markers. Sidak multiple comparison tests were applied following 2-way ANOVA, *p<0.05, **p<0.01, ***p<0.005, ****p<0.001. Bars; showing±Standard Deviation. (F) Representative immunoblots for CDX2, HLA-G, KRT7 and OCT3/4.
In accordance the purpose of the present invention, the inventors applied it to the nutrition fluid of cells under LDN193189 AP conditions to test whether BMP receptor inhibitors can attenuate trophoblast differentiation or not. […] (FIG. 10A)
Trophoblast cells were formed from the obtained IPSCs under BAP or AP conditions. IPS cells were routinely kept on MEFs with hES medium (10 ng/mL FGF2). For trophoblast differentiation, 2.4×10^4 cells per square centimeter were seeded on matrigel-coated plates with conditioned hES medium through a monolayer of mitomycin-C treated MEF nutrient cells (MEF-CM) containing FGF2 (10 ng/mL). Next day, the medium was changed as MEF-CM containing 4 ng/mL FGF2. Next day, the medium was changed as BMP4 (10 ng/mL) containing unconditioned (BAP) hESC basal medium with MEF nutrient cells (RD Systems), ALK4/5/7 inhibitor, A83-01 (1 μM) (Tocris) and FGF2-signal inhibitor PD173074 […] (Sigma) (22, 27, 28). Control cultures were grown in the presence of FGF2 and in the absence of BAP. The medium was refreshed daily.
Total RNA was extracted using the Direct-zol RNA Isolation Kit (Zymogen) and cDNA was synthesized using the Sensifast cDNA synthesis kit (Bioline) as described by the manufacturer. Sequences of primers used in gene expression were synthesized by Macrogen as listed in table 3. qRT-PCR was performed on Exicycler™ 96 (Bioneer) using SensiFAST™ SYBRQR No-ROX Kit (Bioline). qRT-PCR results were analysed by the Ct method for relative amounts by taking GAPDH or HPRT as internal controls.
Cells were harvested in RIPA lysis buffer (150 mM NaCl, 1% NP40, 0.5% sodium deoxycholate, 0.1% SDS, 50 mM Tris pH 7.4) supplied with protease and phosphatase inhibitors (Roche, Switzerland). TCA-acetone precipitation was performed for the supernatants. Protein samples were applied to the SDS gel. Semi-dry transfer was performed by using Blotting papers (Sigma-Aldrich, USA) and PVDF membrane (Millipore, Ireland). After blocking with 5% non-fat dry milk, membranes were incubated overnight with primary antibodies (1:1000) at +4° C. Next day, the membrane was incubated with secondary antibodies connected with 1:2000 HRP according to the host origin of the primary antibody. Between all steps, membranes were washed 3 times with TBS-T. Immunoblot membranes were visualized with the Syngene documentation system by using ECL HRP Substrate (Advansta, USA).
Total RNA was extracted by using the Direct-zol RNA Isolation Kit (Zymogen) according to the protocol of the manufacturer (n=2 in all cases). Library preparation procedure by using Truseq strand mRNA LT Sample Preparation Kit (Illumina) and RNA sequencing procedure by using Hiseq2500 (Illumina) were performed by Macrogen Inc. (Korea). RNA sequence data were processed and interpreted with the Genialis visual computing platform (www.genialis.com). Briefly, RNA sequence readings were subjected to correction (BBDuk), mapping (STAR) and expression quantitation (featureCounts) procedures, respectively. The readings were mapped to Homo sapiens GRCh38 (Ensembl, version 92, ERCC). […]

[1] = complete mole cells, BMP pathway inhibition with LDN193189 100 nM, AP conditions, FIG. 9F
[2] = complete mole cells, LDN193189 100 nM, AP conditions, FIG. 9C-9D

c1ccc2c(-c3cnn4cc(-c5ccc(N6CCNCC6)cc5)cnc34)ccnc2c1 [LDN193189]
trophoblast differentiation of complete mole cells (LDN193189 100 nM, AP conditions, heat map of trophoblast markers FIG. 9B): inhibits trophoblast differentiation of complete mole cells; also recorded: suppression of excessive trophoblast differentiation
hierarchical clustering at whole transcriptome level (cells treated with LDN193189, FIG. 10D): clustered with non-differentiated iPS cells
trophoblast gene expression by qRT-PCR (complete mole cells, BMP pathway inhibition with LDN193189 100 nM, AP conditions, FIG. 9E): decrease in trophoblast gene expression
CDX2, KRT7, HLA-G expression (immunoblot) [1]: stopped CDX2, KRT7, HLA-G increase in expression
OCT3/4 expression (immunoblot) [1]: prevented decrease in expression (downregulation) of OCT3/4
colony morphology (light microscopy) (complete mole cells, LDN193189 100 nM, AP conditions (A83-01+PD173074, no BMP4), vs DMSO vehicle, FIG. 9A): morphological phenotype similar to healthy cells
expression of pluripotency markers (RNA sequencing, violin plot) [2]: remained highly expressed
global expression of trophoblast markers (RNA sequencing, violin plot) [2]: decreased
